How the values were obtained:
[1] = system: Aedes Aegypti female mosquitoes; assay: Knockdown efficacy against mosquitoes in glass chamber; assay type: in vivo; settings: for pest or weed control at 5 mg/strip: Aedes aegypti, 24 h, read-out: Dead (%); for KD50 / KD80 / Dead (%): Barex strips coated with 5 mg of each active; for KD50 / KD80: 20 min test period; for knockdown / biological activity in glass chamber (in words): fresh samples, 5 mg, 20 minute test period; for Dead (%): 24 hours post treatment
Protocol: Markings were made to identify the side to be treated with the active. Markings were also made to leave one inch spacing on either ends 12 and 14 of the strip 10 to enable handling. Intermediate solutions of the active in organic solvents were prepared. A micropipettor, calibrated to transfer a known amount of intermediate solution on to the strip, was used to dose the strip with the active. The solution, after transferring onto the strip 10, was made to wet a 2 inch by 8 inch area 16 between ends 12 and 14, and allowed to sit on the bench top until most of the solvent evaporated and the strips appeared dry (which took 15 minutes to 30 minutes). Strips 10 were then either folded twice and held together with a metal clip and kept in a glass jar or were wrapped in aluminum foil and kept in a sealed plastic bag. These were then stored in the refrigerator at −10° C. until further use.
A Glass chamber (0.75 m×0.75 m×0.75 m) was used for the test and was maintained at 80° F. and 50% relative humidity. Three treated strips were placed on a card board tray covered with an aluminum foil and then transferred to the glass chamber. The strips were exposed in the chamber for three minutes to allow insecticide vapors build-up in the enclosed air. Strips were then quickly removed, folded and stored in the refrigerator. Ten laboratory-cultured adult Aedes Aegypti female mosquitoes were released into the chamber. […] After 20 minutes of exposure, all mosquitoes were collected and placed in a container with sucrose pad. […] KD50, KD80, and % Dead values of the tests were obtained for analysis. KD50 and KD80 are defined as the time taken for 50% and 80% of the mosquitoes to get knocked down and % Dead is simply the percentage of mosquitoes that are dead after 24 hour period. The glass chamber was then dismantled and thoroughly wiped with soap solution to remove contamination of the active. The walls were then wiped with a paper towel and allowed to dry before assembling again for the next run.

[2] = Release of active in wind tunnel (residual analysis); assay type: physicochemical; settings: for % Evap Barex: 5 mg transfluthrin coated on Barex (103 sq. cm.) from the named solvent; for % Evap Filter Paper: 5 mg transfluthrin coated on filter paper (103 sq. cm.) from the named solvent
Excerpt: A computer controlled wind tunnel was custom designed using a fan 18 for drawing fresh air designated by arrows 20 past baffles 22 into a chamber 28 containing multiple strips 10 to determine the release of actives from these strips under controlled environmental conditions (see FIG. 2).
Preset wind velocities can be entered into the computer and maintained without operator's involvement during the testing period. Honey comb flow straighteners 24 and 26 were placed on either ends of the wind tunnel to obtain uniform velocity profiles. Strips 10 were placed on the floor of a 12 inch by 12 inch cross sectioned body in triplicates in a staggered fashion so as to equalize any possible errors that arise from spatial dependency of air velocity. All studies were carried out at a constant air flow rate of 2 meters per second as determined by a velocity probe 30 in chamber 28 and at an ambient temperature of 70° F. for 72 hours. The exhaust designated by arrows 32 of the wind tunnel was directly connected to the building ventilation duct to prevent Transfluthrin contamination of the lab. Strips 10 were removed at predetermined intervals and stored in the refrigerator for subsequent analytical or biological testing.
(§1) A validated analytical method was used to determine the residual level of active on the strips using gas chromatography. All samples were analyzed using this method to determine evaporation losses and release rates in the wind tunnel.

[3] = Residual analysis and release rate of large chamber samples; assay type: physicochemical
Protocol: as §1
The 8 hour aged strips were also sent to analytical for residual analysis. Results, as summarized in Table 18, indicate that the average release of transfluthrin during the 8 hour period is ˜0.2 mg/hr.
Lab studies were also conducted on a portable electric device where a corrugated disc was impregnated with 280 mg of transfluthrin. The disc was placed in a device which has a fan that runs on a battery. Air flows through the holes of the disc releasing the transfluthrin into the environment. Lab studies were conducted on this unit to determine its efficacy. […] Weight loss experiments were also conducted to determine the release rates from this unit.

[4] = system: Culex quinquefasciatus; assay: Field trials in living rooms, human bare-leg catch; assay type: in vivo; settings: Malaysia field study
Protocol: Field trials against Culex quinquefasciatus were conducted in living rooms of residential houses in a squatter area at Ujung Batu, Butterworth on the Northwest peninsula of Malaysia on plastic strips coated with transfluthrin. […] A total of four configurations were tested.
Config. A 2 sheets hung together on each of four walls
Config. B 1 sheet hung on each four walls
Config. C 1 sheet hung on each two opposite walls
Config. D 1 sheet hung on a wall
The average volume of the rooms where the test is conducted is 75.5 cubic meters […]. The human baits were seated 1-2 meters away from all the treated sheets and the efficacy was evaluated using the human bare-leg catch technique during the first 0-2 hours, 24 hours, 96 hours, and 168 hours the placing of the test sheets in the rooms.
These tests were conducted under a rigorous test environment. The predominant species collected during the trials was Culex quinquefasciatus which are most tolerant to pyrethroid based household insecticide products among the common mosquitoes found in the living premises in tropical and subtropical regions globally. Due to the local weather changes, the squatter area chosen for the trials indicated lower indoor mosquito density during the pretreatment and treatment trials.

SMILES	pest or weed control at 5 mg/strip [1]	KD50 [1]	KD80 [1]	knockdown / biological activity in glass chamber (in words) [1]	% Evap Barex [2]	% Evap Filter Paper [2]	also measured
Cc1c(F)c(F)c(COC(=O)[C@@H]2[C@H](/C=C(\Cl)C(F)(F)F)C2(C)C)c(F)c1F (racemic) [Tefluthrin]	100%	13.00 min	16.67 min	relatively lower activity			KD50 ([1]; listed as tefluthrin): 13 min
CCC(C)O (centres unmarked) [2-Butanol]					60.3%	67.1%	
CC(C)=O [Acetone]					58.3%	57.7%	
C=CCC1=C(C)C(OC(=O)[C@@H]2[C@@H](C=C(C)C)C2(C)C)CC1=O (some centres unmarked) [Bioallethrin]		>20 min	>20 min	either minimal activity or no activity at all			Dead (%) [1]: 0%
CC1(C)C(C=C(Cl)Cl)C1C(=O)OC(C#N)c1cccc(Oc2ccccc2)c1 (centres unmarked) [Cypermethrin]	0%	>20 min	>20 min	either minimal activity or no activity at all			
CCN(CC)C(=O)c1cccc(C)c1 [DEET]		>20 min	>20 min	either minimal activity or no activity at all			Dead (%) [1]: 0%
CC1(C)[C@H](C(=O)O[C@H](C#N)c2cccc(Oc3ccccc3)c2)[C@@H]1C=C(Br)Br [Deltamethrin]	20%	>20 min	>20 min	either minimal activity or no activity at all			
CCOP(=S)(OCC)Oc1nc(Cl)c(Cl)cc1Cl [Dursban]	0%	>20 min	>20 min	either minimal activity or no activity at all			
C#CCC1=C(C)C(OC(=O)C2C(C=C(C)C)C2(C)C)CC1=O (centres unmarked) [ETOC]		>20 min	>20 min	either minimal activity or no activity at all			Dead (%) [1]: 0%
CCO [Ethanol]					70.3%	45.0%	
CCOC(C)=O [Ethyl Acetate]					57.6%	61.1%	
CC(C)C(C(=O)OC(C#N)c1cccc(Oc2ccccc2)c1)c1ccc(Cl)cc1 (centres unmarked) [Fenvalerate]	0%	>20 min	>20 min	either minimal activity or no activity at all			
CCCCCCC [Heptane]					86.8%	78.5%	
CC(C)O [IPA, isopropyl alcohol]					50.3%	49.0%	
CC(=O)OCC(C)C [Isobutyl Acetate]					70.9%	63.8%	
CCC(C)=O [MEK]					67.5%	62.4%	
CO [Methanol]					58.3%	47.0%	
COC(C)=O [Methyl Acetate]					57.6%	55.7%	
CC1(C)C(C=C(Cl)Cl)C1C(=O)OCc1cccc(Oc2ccccc2)c1 (centres unmarked) [Permanone]		>20 min	>20 min	either minimal activity or no activity at all			Dead (%) [1]: 0%
CNC(=O)Oc1ccccc1OC(C)C [Propoxur]				either minimal activity or no activity at all			
CC(C)=CC1C(C(=O)OCc2coc(Cc3ccccc3)c2)C1(C)C (centres unmarked) [Resmethrin]	10%	>20 min	>20 min	either minimal activity or no activity at all			
CC(C)=CC1C(C(=O)OCc2cccc(Oc3ccccc3)c2)C1(C)C (centres unmarked) [Sumithrin]	0%	>20 min	>20 min	either minimal activity or no activity at all			
C1CCOC1 [THF]					59.6%	56.4%	
Cc1ccccc1 [Toluene]					60.9%	58.4%	
CC1(C)[C@H](C=C(Cl)Cl)[C@H]1C(=O)OCc1c(F)c(F)cc(F)c1F [Transfluthrin, (IR-trans)-(2,3,5,6-tetrafluorophenyl)methyl 3-(2,2-dichoroethenyl)-2,2-dimethyl cyclopropane carboxylate]	100%		6.83 min	highest activity			Transfluthrin loss in 8 hr ([3]; Barex strip on fan at 3.5 m/s): 1.5 mg; Release rate of Transfluthrin ([3]; average during the 8 hour period, Barex strip on fan, listed as transfluthrin): ~0.2 mg/h; transfluthrin release rate sufficient to achieve practical control [4]: 0.18 mg/h
C#CC(OC(=O)C1C(C=C(C)C)C1(C)C)/C(C)=C/CC (centres unmarked) [Vapothrin]		>20 min	>20 min	either minimal activity or no activity at all			Dead (%) [1]: 0%
